Measured values as given in PubChem BioAssay (NCI).
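Results reflect a 48-hour exposure of cells in 96-well plates to compound at five concentrations. The concentration for 50% growth inhibition is given as GI50. TGI denotes the concentration required for complete inhibition of growth.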

Experiments:
Assay in all cases: NCI anticancer screen, dose series, 48 h
[1] = test system: SF-295 CNS
[2] = test system: HCC-2998 colon
[3] = test system: SK-MEL-5 melanoma
[4] = test system: MDA-MB-231 breast
[5] = test system: RXF 393 renal
[6] = test system: SF-539 CNS
[7] = test system: OVCAR-3 ovarian
[8] = test system: COLO 205 colon
[9] = test system: T-47D breast
[10] = test system: CCRF-CEM leukemia
[11] = test system: NCI-H460 lung
[12] = test system: NCI-H23 lung
[13] = test system: MDA-MB-435
[14] = test system: OVCAR-5 ovarian
[15] = test system: OVCAR-4 ovarian
[16] = test system: SK-MEL-28 melanoma
[17] = test system: SNB-19 CNS
[18] = test system: M14 melanoma
[19] = test system: PC-3 prostate
[20] = test system: A549 NSCLC
[21] = test system: ACHN renal
[22] = test system: OVCAR-8 ovarian
[23] = test system: K-562 leukemia
[24] = test system: LOX IMVI melanoma
[25] = test system: HCT-116 colon
[26] = test system: SNB-75 CNS
[27] = test system: 786-0 renal
[28] = test system: SK-OV-3 ovarian
[29] = test system: CAKI-1 renal
[30] = test system: SR leukemia
[31] = test system: SF-268 CNS
[32] = test system: MOLT-4 leukemia
[33] = test system: NCI/ADR-RES ovarian
[34] = test system: SK-MEL-2 melanoma
[35] = test system: NCI-H226 lung
[36] = test system: NCI-H522 lung
[37] = test system: A498 renal
[38] = test system: HOP-62 NSCLC
[39] = test system: HT29 colon
[40] = test system: HCT-15 colon
[41] = test system: HOP-92 NSCLC
[42] = test system: TK-10 renal
[43] = test system: BT-549 breast
[44] = test system: DU-145 prostate
[45] = test system: SN12C renal
[46] = test system: UACC-257 melanoma
[47] = test system: MCF7 breast
[48] = test system: U251 CNS
[49] = test system: HS 578T breast
[50] = test system: SW-620 colon
[51] = test system: IGROV1 ovarian
[52] = test system: UO-31 renal
[53] = test system: RPMI-8226 leukemia
[54] = test system: KM12 colon
[55] = test system: HL-60(TB) leukemia
[56] = test system: UACC-62 melanoma
[57] = test system: MALME-3M melanoma

Cn1cc(C2=C(c3cn(C)c4cc(C(=O)O)ccc34)C(=O)NC2=O)c2ccccc21
GI50 [1]: > 25 µM | TGI [1]: > 25 µM | GI50 [2]: > 25 µM | TGI [2]: > 25 µM | GI50 [3]: > 25 µM | TGI [3]: > 25 µM | GI50 [4]: > 25 µM | TGI [4]: > 25 µM | GI50 [5]: > 19.8 µM | TGI [5]: > 25 µM | GI50 [6]: > 25 µM | TGI [6]: > 25 µM | GI50 [7]: > 25 µM | TGI [7]: > 25 µM | GI50 [8]: > 25 µM | TGI [8]: > 25 µM | GI50 [9]: 21.1 µM | TGI [9]: > 25 µM | GI50 [10]: > 20.4 µM | TGI [10]: > 25 µM | GI50 [11]: > 25 µM | TGI [11]: > 25 µM | GI50 [12]: > 25 µM | TGI [12]: > 25 µM | GI50 [13]: > 25 µM | TGI [13]: > 25 µM | GI50 [14]: > 25 µM | TGI [14]: > 25 µM | GI50 [15]: > 25 µM | TGI [15]: > 25 µM | GI50 [16]: > 25 µM | TGI [16]: > 25 µM | GI50 [17]: > 25 µM | TGI [17]: > 25 µM | GI50 [18]: > 25 µM | TGI [18]: > 25 µM | GI50 [19]: > 25 µM | TGI [19]: > 25 µM | GI50 [20]: > 25 µM | TGI [20]: > 25 µM | GI50 [21]: > 25 µM | TGI [21]: > 25 µM | GI50 [22]: > 25 µM | TGI [22]: > 25 µM | GI50 [23]: > 25 µM | TGI [23]: > 25 µM | GI50 [24]: > 13.9 µM | TGI [24]: > 25 µM | GI50 [25]: > 25 µM | TGI [25]: > 25 µM | GI50 [26]: 4.96 µM | TGI [26]: > 25 µM | GI50 [27]: > 25 µM | TGI [27]: > 25 µM | GI50 [28]: > 25 µM | TGI [28]: > 25 µM | GI50 [29]: > 17.2 µM | TGI [29]: > 25 µM | GI50 [30]: > 13.4 µM | TGI [30]: > 25 µM | GI50 [31]: > 25 µM | TGI [31]: > 25 µM | GI50 [32]: > 25 µM | TGI [32]: > 25 µM | GI50 [33]: > 25 µM | TGI [33]: > 25 µM | GI50 [34]: > 15.5 µM | TGI [34]: 25 µM | GI50 [35]: > 25 µM | TGI [35]: > 25 µM | GI50 [36]: > 12.1 µM | TGI [36]: > 20.1 µM | GI50 [37]: > 12 µM | TGI [37]: > 25 µM | GI50 [38]: > 25 µM | TGI [38]: > 25 µM | GI50 [39]: > 25 µM | TGI [39]: > 25 µM | GI50 [40]: > 25 µM | TGI [40]: > 25 µM | GI50 [41]: > 25 µM | TGI [41]: > 25 µM | GI50 [42]: > 25 µM | TGI [42]: > 25 µM | GI50 [43]: > 25 µM | TGI [43]: > 25 µM | GI50 [44]: > 25 µM | TGI [44]: > 25 µM | GI50 [45]: > 25 µM | TGI [45]: > 25 µM | GI50 [46]: > 25 µM | TGI [46]: > 25 µM | GI50 [47]: > 25 µM | TGI [47]: > 25 µM | GI50 [48]: > 25 µM | TGI [48]: > 25 µM | GI50 [49]: 5.86 µM | TGI [49]: > 25 µM | GI50 [50]: > 25 µM | TGI [50]: > 25 µM | GI50 [51]: > 25 µM | TGI [51]: > 25 µM | GI50 [52]: > 25 µM | TGI [52]: > 25 µM | GI50 [53]: > 25 µM | TGI [53]: > 25 µM | GI50 [54]: > 25 µM | TGI [54]: > 25 µM | GI50 [55]: > 25 µM | TGI [55]: > 25 µM | GI50 [56]: > 25 µM | TGI [56]: > 25 µM | GI50 [57]: > 25 µM | TGI [57]: > 25 µM
